The values below come from patent publication US20260374756A1, “HETEROCYCLIC COMPOUNDS AS INHIBITORS OF MONOACYLGLYCEROL LIPASE (MAGL)” (Hoffmann-La Roche Inc., priority 2022, published 2026).

This experiment has as its target T1, hMAGL (Homo sapiens, UniProt Q99685).
T1 sequence (Q99685 1-303): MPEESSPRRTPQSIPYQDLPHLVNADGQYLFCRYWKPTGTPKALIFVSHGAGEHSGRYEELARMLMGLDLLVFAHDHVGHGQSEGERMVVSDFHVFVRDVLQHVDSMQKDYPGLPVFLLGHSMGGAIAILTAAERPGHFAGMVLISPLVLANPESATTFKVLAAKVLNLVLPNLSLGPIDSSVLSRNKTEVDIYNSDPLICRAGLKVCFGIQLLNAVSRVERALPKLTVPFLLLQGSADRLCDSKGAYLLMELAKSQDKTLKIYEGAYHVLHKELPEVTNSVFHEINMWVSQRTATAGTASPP
The experiment can be described thus: 2-AG assay: MAGL inhibition, hydrolysis of 2-arachidonoylglycerol to arachidonic acid followed by mass spectrometry. The format is biochemical. Put shortly: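 Read-out is LC-MS/MS of arachidonic acid released from 2-arachidonoylglycerol (8 μM final), normalised to d8-arachidonic acid internal standard after acetonitrile quench. Enzyme […] and compound were pre-mixed 15 min, then reacted 30 min, both at RT, in Tris/EDTA buffer with 0.01% Tween-20 and 2.5% DMSO.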
`N=S(=O)(c1cnn(CC2CC3(C2)CN(C(=O)N2CC4(CC(n5cnc(C(F)(F)F)n5)C4)C2)C3)c1)C(F)(F)F` (stereo not shown) [Example 341, [6-[[4-(trifluoromethylsulfonimidoyl)pyrazol-1-yl]methyl]-2-azaspiro[3.3]heptan-2-yl]-[6-[3-(trifluoromethyl)-1,2,4-triazol-1-yl]-2-azaspiro[3.3]heptan-2-yl]methanone] registered a concentration for half-maximal inhibition (IC50) of 3.54 nM.
For `O=C(N1CC2(CC(Cc3cc(C4CC4)[nH]n3)C2)C1)N1CC2(CC(n3cnc(C(F)F)n3)C2)C1` [Example 342, [6-[(5-cyclopropyl-1H-pyrazol-3-yl)methyl]-2-azaspiro[3.3]heptan-2-yl]-[6-[3-(difluoromethyl)-1,2,4-triazol-1-yl]-2-azaspiro[3.3]heptan-2-yl]methanone] the value was 3.26 nM; for `O=C(N1CC2(CC(Cc3cc(C(F)(F)F)n[nH]3)C2)C1)N1CC2(CC(n3cnc(C(F)F)n3)C2)C1` [Example 343, [6-[3-(difluoromethyl)-1,2,4-triazol-1-yl]-2-azaspiro[3.3]heptan-2-yl]-[6-[[3-(trifluoromethyl)-1H-pyrazol-5-yl]methyl]-2-azaspiro[3.3]heptan-2-yl]methanone], 2.62 nM; for `O=C(N1CC2(CC(Cc3n[nH]cc3C(F)(F)F)C2)C1)N1CC2(CC(n3cnc(C(F)F)n3)C2)C1` [Example 344, [6-[3-(difluoromethyl)-1,2,4-triazol-1-yl]-2-azaspiro[3.3]heptan-2-yl]-[6-[[4-(trifluoromethyl)-1H-pyrazol-3-yl]methyl]-2-azaspiro[3.3]heptan-2-yl]methanone], 2.26 nM.
`O=C(N1CC2(CC(Cn3ncnc3C(F)(F)F)C2)C1)N1CC2(CC(n3cnc(C4CC4)n3)C2)C1` [Example 345, [6-(3-cyclopropyl-1,2,4-triazol-1-yl)-2-azaspiro[3.3]heptan-2-yl]-[6-[[5-(trifluoromethyl)-1,2,4-triazol-1-yl]methyl]-2-azaspiro[3.3]heptan-2-yl]methanone] gave an IC50 of 2.22 nM.
`O=C(N1CC2(CC(Cc3cn[nH]c3C(F)(F)F)C2)C1)N1CC2(CC(n3cnc(C(F)F)n3)C2)C1` [Example 346, [6-[3-(difluoromethyl)-1,2,4-triazol-1-yl]-2-azaspiro[3.3]heptan-2-yl]-[6-[[5-(trifluoromethyl)-1H-pyrazol-4-yl]methyl]-2-azaspiro[3.3]heptan-2-yl]methanone] had an IC50 of 1.99 nM.
Turning to `O=C(N1CC2(CC(Cc3cn(CC(F)(F)F)nn3)C2)C1)N1CC2(CC(n3cnc(C4CC4)n3)C2)C1` [Example 347, [6-(3-cyclopropyl-1,2,4-triazol-1-yl)-2-azaspiro[3.3]heptan-2-yl]-[6-[[1-(2,2,2-trifluoroethyl)triazol-4-yl]methyl]-2-azaspiro[3.3]heptan-2-yl]methanone], the IC50 stood at 1.77 nM.
Take `O=C(N1CC2(CC(Cc3nc(C(F)(F)F)c[nH]3)C2)C1)N1CC2(CC(n3cnc(C(F)(F)F)n3)C2)C1` [Example 348, [6-[[4-(trifluoromethyl)-1H-imidazol-2-yl]methyl]-2-azaspiro[3.3]heptan-2-yl]-[6-[3-(trifluoromethyl)-1,2,4-triazol-1-yl]-2-azaspiro[3.3]heptan-2-yl]methanone]: half-maximal inhibition (IC50) was put at 1.51 nM. This IC50 and that of the compound before are within 1.5-fold of each other.
Take `N=S(=O)(c1cnn(CC2CC3(C2)CN(C(=O)N2CC4(CC(n5cnc(C6CC6)n5)C4)C2)C3)c1)C(F)(F)F` (stereo not shown) [Example 349, [6-(3-cyclopropyl-1,2,4-triazol-1-yl)-2-azaspiro[3.3]heptan-2-yl]-[6-[[4-(trifluoromethylsulfonimidoyl)pyrazol-1-yl]methyl]-2-azaspiro[3.3]heptan-2-yl]methanone]: the IC50 stood at 1.02 nM.
In turn, `O=C(N1CC2(CC(Cc3cnn(CC(F)(F)F)n3)C2)C1)N1CC2(CC(n3cnc(C4CC4)n3)C2)C1` [Example 350, [6-(3-cyclopropyl-1,2,4-triazol-1-yl)-2-azaspiro[3.3]heptan-2-yl]-[6-[[2-(2,2,2-trifluoroethyl)triazol-4-yl]methyl]-2-azaspiro[3.3]heptan-2-yl]methanone] displayed an IC50 of 0.92 nM.
